The source of these data is paper PMC4586518, “Melanin production through novel processing of proopiomelanocortin in the extracellular compartment of the auricular skin of C57BL/6 mice after UV-irradiation” (Scientific Reports, 2015).

The subject of one assay is mouse melanoma B16 cells. The conditions noted are these: 72 h. On the procedure: (B). […] C. […] Each point and line represents the mean ± SEM (n = 4).
Melanin production activity was performed as follows: B16 cells and normal human melanocytes (TOYOBO. Osaka, Japan) were seeded at the density of 1 × 10[5] cells in 24-well plates and allowed to attach overnight. […] Cells were solubilized in 1 M NaOH at 60°C, and melanin content was measured spectrophotometrically at 475 nm.

Assay [1] concerns MC-1R. Further details: method as in 2 sources, ref 23 = [23]; PMID 17317724; doi:10.1096/fj.06-7398com; Rousseau K. et al. Proopiomelanocortin (POMC), the ACTH/melanocortin precursor, is secreted by human epidermal keratinocytes and melanocytes and stimulates melanogenesis . FASEB J 21 , 1844 – 1856 ( 2 ||| ref 34 = [34]; PMID 1556905; doi:10.1016/0024-3205(92)90347-r; Slominski. A. et al. Melanotropic activity of gamma MSH peptides in melanoma cells . Life Sci , 50 , 1103 – 1108 ( 1992 ). 1556905 10.1016/0024-3205(92)90347-r. The conditions noted are these: cited from earlier work. The source says:
To clarify the mechanism of melanin production after UV-irradiation, we assessed the expression of POMC and POMC-derived peptides after UV-irradiation to the skin of the murine auricle.

The next assay concerns frog skin. Further details: method as in PMID 2822931. As to conditions: cited from earlier work.
The subject of another assay is lizard skin. Further details: method as in PMID 2537778. As to conditions: cited from earlier work.
The subject of a further assay is melanin production. The conditions noted are these: bioassay studies on melanin production; cited from earlier work.
The test system of assay [2] is MC-1R. The conditions noted are these: cited from earlier work. The source says:
Melanin plays an important role in protecting skin after UV-irradiation. α-MSH is a major catalyst for melanogenesis in the skin following UV-irradiation. α-MSH-LI and ACTH-LI may be present in culture media of normal keratinocytes, fibroblasts, melanocytes, and their cell extracts. Although POMC and POMC-derived peptides such as ACTH and α-MSH are released from the intermedia of the pituitary, it is unlikely that pituitary secretions contribute to local pigmentation. In the present report, POMC-related peptides were detected in the UV-irradiated auricle ... || Structure-activity analyses of α-MSH have reported information on the essential sequence required for MC-1R binding and melanin production. […] However, Ac-His-Phe-Arg-Trp-NH2 had 400,000-fold less activity (EC50 20 μM) than α-MSH in a frog skin bioassay[31] and approximately 7,000-fold less activity (EC50 1 μM) in a lizard skin bioassay. Furthermore, the N-terminal region of α-MSH is ...

Assay [3] concerns the target T1, MC-1R (Mus musculus, UniProt Q01727).
T1 construct: Mouse melanoma cell line B16[43], which express MC-1R and produce melanin; host or cells: B16 mouse melanoma cells (adherent, whole cells)
The assay is described as follows: Inhibition of α-MSH- or ACTH(1–8)-induced melanin production in B16 cells by MC-1R antagonist. The conditions noted are these: dose-dependent effect of antagonist, n = 4. The class given is cell-based. On the procedure: Figure 3 ACTH(1–8)-mediated melanin production via the MC-1R. (A). The Radioreceptor assay of ACTH(1–8) (open circle) and α-MSH (closed circle) in mouse melanoma B16 cells. B16 mouse melanoma cells were incubated with [^125I]-α-MSH and 10^−7–10^−11 M ACTH(1–8) or 10^−6–10^−11 M α-MSH. The receptor binding of [^125I]-α-MSH was expressed as 100% in the absence of α-MSH and 0% in the presence of 1 μM α-MSH and calculated as relative activity. (B). ACTH(1–8)- and α-MSH-mediated melanin production. B16 mouse melanoma cells were incubated with 10^−7–10^−11 M ACTH(1–8) (open circle) or 10^−6–10^−11 M α-MSH (closed circle). Melanin levels are expressed as 100% and 0% in the presence of 1 μM α-MSH and absence of α-MSH, respectively, and calculated as the relative activity. C. […] Melanin levels are expressed as 100% and 0% in the presence of 1 μM α-MSH and absence of α-MSH, respectively, and calculated as the relative activity.
Melanin production activity was performed as follows: B16 cells and normal human melanocytes (TOYOBO. Osaka, Japan) were seeded at the density of 1 × 10[5] cells in 24-well plates and allowed to attach overnight. […] Cells were solubilized in 1 M NaOH at 60°C, and melanin content was measured spectrophotometrically at 475 nm. Melanin levels were expressed as 100% and 0% in the presence of 1 μM α-MSH and absence of α-MSH, respectively. […]

“Also recorded” adds a separate entry of the source. No end group written: not given here.

T1 sequence (Q01727 whole entry): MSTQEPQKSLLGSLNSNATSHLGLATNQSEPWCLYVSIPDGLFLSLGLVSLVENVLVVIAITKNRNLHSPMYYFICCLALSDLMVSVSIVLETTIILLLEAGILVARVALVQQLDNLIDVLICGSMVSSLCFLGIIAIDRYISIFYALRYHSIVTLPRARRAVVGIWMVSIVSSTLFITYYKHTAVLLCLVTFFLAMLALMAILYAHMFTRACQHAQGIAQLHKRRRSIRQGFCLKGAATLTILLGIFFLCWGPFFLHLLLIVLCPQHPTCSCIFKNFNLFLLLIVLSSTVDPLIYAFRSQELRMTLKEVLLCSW

With SYSMEHFR [ACTH(1–8)], the EC50 (as a rule, the concentration needed to bring the measured effect to its halfway point) with mouse melanoma B16 cells is 0.08 µM.
As to “adrenocorticotropic hormone (SYSMEHFRWGKPVGKKRRPVKVYPNGAEDESAEAFPLEF; Corticotropin; UniProt P01189 138-176, looked up) [ACTH, intermediate form of α-MSH, produced from POMC; 4.5 kDa]”, in the assay on MC-1R [1] (MC1-R), the “agonism at MC-1R” value is listed as “known agonists”.
On to Ac-His-Phe-Arg-Trp-NH2, for which the EC50 in the assay with frog skin (frog skin, read-out: EC50, frog skin bioassay) is 20 µM; with lizard skin (lizard skin, read-out: EC50, lizard skin bioassay), 1 µM. Moreover, the “fold less activity than α-MSH, frog skin bioassay” value with frog skin (relative to α-MSH) was 400,000 fold. The “fold less activity than α-MSH, lizard skin bioassay” value in the assay with lizard skin (relative to α-MSH) is given as “approximately 7,000 fold”. Besides, the “melanotropic response” value in the assay on melanin production is on record as “minimal synthetic fragment capable of eliciting a melanotropic response”.
Take γ-MSH: the “antagonism against MC-1R” value with MC-1R [1] is recorded as “competitive antagonist against MC-1R”. Also, the “potency when binding to MC-1R” value in the assay with MC-1R [1] (compared with ACTH(1–8)) is recorded as “potent when binding to MC-1R, but at low potency levels similar to ACTH(1–8)”. The “melanin production” value in the assay with MC-1R [2] is recorded as “increases melanin production”.
“ASP(87–132)-NH2: a MC-1R antagonist (TPLSAPCVATRNSCKPPAPACCDPCASCQCRFFRSACSCRVLSLNC-NH2; cysteine pairing not given here; UniProt P42127 87-132, looked up, fragment)”: the “effect on ACTH(1–8)-mediated melanin production” value with MC-1R [3] (10^−7 M ACTH(1–8)) was “competitively attenuated; also recorded: decreased both ACTH(1–8)- and α-MSH-mediated melanogenesis”. For the same substance, the “effect on α-MSH-mediated melanin production” value with MC-1R [3] (10^−8 M α-MSH) is “decreased both ACTH(1–8)- and α-MSH-mediated melanogenesis”.
